Experiment [1] has as its target DNA dC->dU-editing enzyme APOBEC-3G (Homo sapiens, UniProt Q9HC16). Description: APOBEC3G deaminase inhibitors, SAR follow-up, biochemical, fluorescence, single-stranded DNA substrate (AID 602136). In kind it is functional. The note with it: read-out: IC50_Mean.
Experiment [2] deals with DNA dC->dU-editing enzyme APOBEC-3A (Homo sapiens, UniProt P31941). Description: SAR analysis of small molecule inhibitors of APOBEC3A DNA Deaminase via a fluorescence-based single-stranded DNA deaminase assay. In kind it is functional. The note with it: read-out: IC50_Mean.
Experiment [3] is described as follows: NIH-3T3 fibroblast cytotoxicity, dose response, cytotoxicity control, cell-based, fluorescence, Alamar Blue, secondary assay (AID 2327).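 Also: NIH-3T3 mouse fibroblasts cultured with fluconazole at 8 µg/mL.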 It is filed as functional.
The nature of experiment [4]: cytotoxicity in HEK-293T NF-kB-Luc cells, dose response, cytotoxicity control for B/T-cell NF-kB inhibitor project, cell-based, uHTS hits (AID 489019).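 Also: IC50 reflects cytotoxicity as loss of cell viability.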 In kind it is functional.
In experiment [5] the target is T1, Ubiquitin-conjugating enzyme E2 N (Homo sapiens, UniProt P61088).
T1 sequence (P61088 whole entry): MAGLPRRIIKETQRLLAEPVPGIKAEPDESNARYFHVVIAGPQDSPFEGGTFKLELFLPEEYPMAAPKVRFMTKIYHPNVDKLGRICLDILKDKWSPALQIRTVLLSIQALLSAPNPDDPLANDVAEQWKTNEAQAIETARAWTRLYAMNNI
It is filed as functional.

The test system of another experiment is Jurkat. Description: antigen receptor-induced NF-kB inhibitors, dose response, Jurkat, luciferase reporter, luminescence, B- and T-cell (AID 489004).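 Also: NF-kB luciferase reporter Jurkat cells stimulated with PMA plus ionomycin.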 It is filed as functional, cell-based. To be noted: Homo sapiens.
A further experiment has as its system INS1. The experiment can be described thus: beta cell apoptosis inhibitors, cytokine rescue, dose response, luminescence, retest (AID 449756).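 Also: cell death triggered by IL-1 beta plus TNF-alpha plus IFN-gamma mixture; protective hits raise ATP signal compared with cytokine alone wells.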 The note with it: Rattus norvegicus. In kind it is functional, cell-based.
A short description of experiment [6]: C. albicans growth with fluconazole, confirmation, fluorescence, retest (AID 2467). It is filed as functional, cell-based.
For experiment [7], the target named is T2, Apoptotic protease-activating factor 1 (Homo sapiens, UniProt O14727).
T2 sequence (O14727 whole entry): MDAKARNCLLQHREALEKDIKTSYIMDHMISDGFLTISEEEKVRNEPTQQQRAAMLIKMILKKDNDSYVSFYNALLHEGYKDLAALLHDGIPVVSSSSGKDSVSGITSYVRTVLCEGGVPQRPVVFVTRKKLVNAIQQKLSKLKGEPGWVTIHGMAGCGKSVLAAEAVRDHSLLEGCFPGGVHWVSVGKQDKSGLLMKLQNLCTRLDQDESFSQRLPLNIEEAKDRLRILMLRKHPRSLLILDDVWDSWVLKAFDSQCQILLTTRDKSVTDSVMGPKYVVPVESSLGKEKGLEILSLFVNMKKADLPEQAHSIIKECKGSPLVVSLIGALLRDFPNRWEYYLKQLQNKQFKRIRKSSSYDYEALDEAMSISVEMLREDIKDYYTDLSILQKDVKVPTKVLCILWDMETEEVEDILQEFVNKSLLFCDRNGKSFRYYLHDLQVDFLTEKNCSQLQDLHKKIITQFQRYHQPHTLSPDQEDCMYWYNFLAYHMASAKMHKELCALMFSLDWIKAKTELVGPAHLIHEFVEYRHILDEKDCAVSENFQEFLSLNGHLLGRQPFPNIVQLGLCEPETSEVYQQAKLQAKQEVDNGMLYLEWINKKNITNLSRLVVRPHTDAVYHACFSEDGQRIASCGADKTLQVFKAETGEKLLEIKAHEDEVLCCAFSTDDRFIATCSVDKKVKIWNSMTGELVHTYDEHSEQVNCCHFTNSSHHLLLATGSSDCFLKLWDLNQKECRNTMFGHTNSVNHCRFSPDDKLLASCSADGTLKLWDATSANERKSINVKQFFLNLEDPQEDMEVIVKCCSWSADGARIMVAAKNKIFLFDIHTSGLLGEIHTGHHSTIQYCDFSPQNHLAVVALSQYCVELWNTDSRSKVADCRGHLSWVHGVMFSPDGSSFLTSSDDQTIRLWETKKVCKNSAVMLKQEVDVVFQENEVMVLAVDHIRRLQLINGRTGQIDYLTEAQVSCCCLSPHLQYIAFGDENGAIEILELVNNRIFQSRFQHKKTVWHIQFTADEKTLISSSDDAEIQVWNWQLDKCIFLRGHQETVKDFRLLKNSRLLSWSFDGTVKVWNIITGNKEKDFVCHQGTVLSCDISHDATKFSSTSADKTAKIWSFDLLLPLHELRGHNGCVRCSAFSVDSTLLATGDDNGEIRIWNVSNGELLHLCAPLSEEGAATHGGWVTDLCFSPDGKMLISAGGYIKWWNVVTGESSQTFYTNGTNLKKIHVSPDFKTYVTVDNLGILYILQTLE
In kind it is functional.

Experiment [8] is described as follows: Luminescence Cell-Based Dose Retest to Confirm Inhibitors of Cancer Stem Cells. [Related pubchem assays (depositor defined):AID2717, AID2721]. In kind it is functional. The note with it: Homo sapiens.
For experiment [9], the target named is T3, DNA repair protein RAD52 homolog (Homo sapiens, UniProt P43351).
T3 sequence (P43351 whole entry): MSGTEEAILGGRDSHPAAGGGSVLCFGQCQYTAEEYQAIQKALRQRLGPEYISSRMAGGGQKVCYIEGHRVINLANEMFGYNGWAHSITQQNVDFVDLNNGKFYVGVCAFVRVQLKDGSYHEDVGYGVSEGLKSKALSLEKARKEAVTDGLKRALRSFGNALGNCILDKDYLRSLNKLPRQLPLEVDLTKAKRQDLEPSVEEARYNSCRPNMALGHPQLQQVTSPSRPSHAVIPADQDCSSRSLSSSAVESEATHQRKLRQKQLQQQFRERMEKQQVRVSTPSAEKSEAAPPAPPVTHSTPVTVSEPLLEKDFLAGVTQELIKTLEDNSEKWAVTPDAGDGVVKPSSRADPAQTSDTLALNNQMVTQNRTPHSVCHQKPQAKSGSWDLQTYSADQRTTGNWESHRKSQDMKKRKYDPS
In kind it is functional, biochemical.

Experiment [10] has as its target T4, Insulin-degrading enzyme (Homo sapiens, UniProt P14735).
T4 sequence (P14735 whole entry): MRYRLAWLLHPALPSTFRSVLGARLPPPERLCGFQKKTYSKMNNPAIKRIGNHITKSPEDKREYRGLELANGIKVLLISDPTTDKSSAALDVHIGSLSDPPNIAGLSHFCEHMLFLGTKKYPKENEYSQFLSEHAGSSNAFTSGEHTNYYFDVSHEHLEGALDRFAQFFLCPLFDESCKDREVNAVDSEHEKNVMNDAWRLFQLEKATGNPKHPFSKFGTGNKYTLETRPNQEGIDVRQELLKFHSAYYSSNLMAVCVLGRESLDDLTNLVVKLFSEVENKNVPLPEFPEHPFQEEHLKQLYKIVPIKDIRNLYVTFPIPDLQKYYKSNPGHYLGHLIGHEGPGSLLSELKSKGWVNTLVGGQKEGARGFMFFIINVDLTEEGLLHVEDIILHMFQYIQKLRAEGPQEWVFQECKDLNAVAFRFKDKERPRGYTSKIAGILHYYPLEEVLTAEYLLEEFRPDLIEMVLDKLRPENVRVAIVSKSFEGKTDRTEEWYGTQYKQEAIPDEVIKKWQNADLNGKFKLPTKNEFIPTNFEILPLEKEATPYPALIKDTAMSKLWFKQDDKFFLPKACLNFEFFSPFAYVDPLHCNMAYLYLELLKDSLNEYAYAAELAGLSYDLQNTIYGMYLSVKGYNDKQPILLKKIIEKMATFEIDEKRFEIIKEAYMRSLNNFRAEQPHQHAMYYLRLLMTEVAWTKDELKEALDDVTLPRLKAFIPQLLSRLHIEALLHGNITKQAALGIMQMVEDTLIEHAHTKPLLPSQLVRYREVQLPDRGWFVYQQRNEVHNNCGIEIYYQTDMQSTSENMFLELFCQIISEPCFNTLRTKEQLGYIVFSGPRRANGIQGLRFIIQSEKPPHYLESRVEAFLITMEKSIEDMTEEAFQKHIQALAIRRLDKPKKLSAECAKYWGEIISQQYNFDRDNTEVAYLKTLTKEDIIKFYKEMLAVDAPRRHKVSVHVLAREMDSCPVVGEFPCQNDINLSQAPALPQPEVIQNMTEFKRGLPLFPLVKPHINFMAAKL
The experiment can be described thus: activators of endogenous IDE in HEK cells, dose response, cell-based, fluorescence polarization (AID 588439). It is filed as functional. A general note: Polarisation of emitted light reports the rotation of a fluorescent probe.

Experiment [11] relates to HEK293. The experiment can be described thus: optical interference in Abeta FP readout, dose response, artefact control for IDE activator project, biochemical, fluorescence polarization (AID 588442). It is filed as functional, cell-based. To be noted: Homo sapiens.
Experiment [12] has as its system HEK293. The experiment can be described thus: HEK cell cytotoxicity by LDH release, dose response, cytotoxicity control for IDE activator project, fluorescence, HEK cells (AID 588440).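 Also: cytotoxicity by LDH release measuring loss of membrane integrity.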 To be noted: Homo sapiens. In kind it is functional, cell-based. Background: Release of lactate dehydrogenase indicates damage to the cell membrane.
Experiment [13] deals with T4, Insulin-degrading enzyme. Description: activators of recombinant IDE enzyme, dose response, counter-screen for IDE activator project, biochemical, fluorescence polarization (AID 588681).
Experiment [14] in a line: HEK293T cytotoxicity, dose response, cytotoxicity control for miR-122 modulator project, cell-based, activator set, cherry-pick (AID 720690).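 Also: HEK293T human cells scored for general mammalian cytotoxicity.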 In kind it is functional.
Experiment [15] is described as follows: miR-122 activators in hepatoma reporter cells, dose response, cell-based, Huh7 psiCHECK-miR122, Renilla luciferase, cherry-picked (AID 651956).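 Also: huh7 hepatoma cells stably carrying a psiCHECK-2 miR-122 sensor plasmid; renilla luciferase signal reporting endogenous miR-122 activity after 48 h compound exposure.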 In kind it is functional.
Experiment [16] in a line: THP-1 cell cytotoxicity, dose response, cytotoxicity control for Vif-APOBEC3G degradation inhibitor project, THP-1 cells (AID 1117359). In kind it is functional. The note with it: Human immunodeficiency virus 1, THP-1.
Experiment [17] is described as follows: microbe, parasite or virus in culture. The note with it: Mycobacterium tuberculosis. It is filed as functional.
For a further experiment, the target named is T5, Bcl-2-related protein A1 (Mus musculus, UniProt Q07440).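 Also: confirmatory dose–response counterscreen on Bfl-1, used to check hits from a UBC13 polyubiquitin inhibitor campaign.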
T5 sequence (Q07440 whole entry): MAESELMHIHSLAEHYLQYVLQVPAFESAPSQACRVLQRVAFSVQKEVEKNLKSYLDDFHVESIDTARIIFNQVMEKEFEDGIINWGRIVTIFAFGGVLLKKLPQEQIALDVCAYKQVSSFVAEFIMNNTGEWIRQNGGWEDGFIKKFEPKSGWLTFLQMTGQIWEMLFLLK
It is filed as functional.

The target in a further experiment is T6, Coagulation factor XII (Homo sapiens, UniProt P00748).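 Also: activated factor XIIa alpha cleaving a fluorogenic AMC peptide substrate; inhibitor potency from loss of enzyme activity.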
T6 sequence (P00748 whole entry): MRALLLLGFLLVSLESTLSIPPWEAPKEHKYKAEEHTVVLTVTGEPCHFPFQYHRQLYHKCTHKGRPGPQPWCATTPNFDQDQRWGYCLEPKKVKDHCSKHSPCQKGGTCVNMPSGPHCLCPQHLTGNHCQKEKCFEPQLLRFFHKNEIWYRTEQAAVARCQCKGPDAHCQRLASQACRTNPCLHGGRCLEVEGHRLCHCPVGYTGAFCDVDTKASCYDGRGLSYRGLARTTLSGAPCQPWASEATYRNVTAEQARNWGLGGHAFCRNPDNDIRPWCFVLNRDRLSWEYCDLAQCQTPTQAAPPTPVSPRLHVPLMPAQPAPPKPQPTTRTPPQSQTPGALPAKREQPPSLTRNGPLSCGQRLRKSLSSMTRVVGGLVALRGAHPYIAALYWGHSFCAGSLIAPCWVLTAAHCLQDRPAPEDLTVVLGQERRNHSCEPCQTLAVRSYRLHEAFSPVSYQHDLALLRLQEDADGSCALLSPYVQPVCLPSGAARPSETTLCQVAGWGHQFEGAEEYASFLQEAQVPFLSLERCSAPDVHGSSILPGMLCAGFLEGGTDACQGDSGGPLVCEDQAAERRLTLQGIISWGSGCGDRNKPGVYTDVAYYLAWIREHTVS
In kind it is functional.

The target in experiment [18] is T1, Ubiquitin-conjugating enzyme E2 N. In kind it is functional. The source holds these as a separate data set.

Activity calls are given as the source filed them.

DNA dC->dU-editing enzyme APOBEC-3A, sequence (P31941 whole entry): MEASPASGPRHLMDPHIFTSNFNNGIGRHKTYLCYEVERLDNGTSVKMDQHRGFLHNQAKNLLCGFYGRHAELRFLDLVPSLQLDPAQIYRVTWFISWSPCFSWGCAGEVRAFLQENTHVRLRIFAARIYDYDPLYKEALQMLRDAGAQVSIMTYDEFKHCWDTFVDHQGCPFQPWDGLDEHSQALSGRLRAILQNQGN
DNA dC->dU-editing enzyme APOBEC-3G, sequence (Q9HC16 whole entry): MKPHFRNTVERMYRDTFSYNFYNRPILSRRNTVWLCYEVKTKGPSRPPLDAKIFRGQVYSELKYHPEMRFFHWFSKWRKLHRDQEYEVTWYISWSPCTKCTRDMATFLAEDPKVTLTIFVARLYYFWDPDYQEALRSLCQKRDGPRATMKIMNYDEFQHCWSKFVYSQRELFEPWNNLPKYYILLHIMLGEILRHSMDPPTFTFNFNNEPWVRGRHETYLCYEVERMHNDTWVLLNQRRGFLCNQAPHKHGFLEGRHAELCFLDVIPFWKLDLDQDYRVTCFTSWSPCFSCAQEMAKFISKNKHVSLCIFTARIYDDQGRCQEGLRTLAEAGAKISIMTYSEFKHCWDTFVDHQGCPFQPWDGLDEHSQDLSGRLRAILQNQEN

In the case of `CC(C)Cn1c(=O)c2cc(Cl)ccc2n2c(SCc3ccc(Cl)cc3)nnc12`, the IC50 in experiment [1] and in [2] was > 99 µM (inactive) each time.

In the case of `CCCCCc1ccc(OCCCC[n+]2cccc(C)c2)c(CCCCC)c1`, the values for the EC50 in experiment [3] and in [6] were > 150 µM (inactive) and 0.755 µM (active), respectively. Moreover, the IC50 in experiment [4] is 68.8 µM (inactive); in experiment [5], > 20 µM (inactive); in the experiment with Jurkat, 4.68 µM (active); in experiment [7] it was 28.5 µM (active). Further, the AC50 in the experiment with INS1 is 1.64 µM (active); in [8] it was 0.694 µM (active); in experiment [9], 15.1 µM (active).

In the case of `CC(=O)Nc1ccc(NC(=O)COC(=O)c2[nH]nc3ccccc23)cc1`, the EC50 on Insulin-degrading enzyme [10], in the experiment on HEK293 [11] and on Insulin-degrading enzyme [13] was > 54.7 µM (inactive) in each case. For the same compound, the IC50 with HEK293 [12] is > 89.2 µM (inactive).

Take `Cn1c(SCC(N)=O)nnc1-c1sc2cc(Cl)ccc2c1Cl`: the IC50 in experiment [1] and in experiment [2] was > 99 µM (inactive) throughout.

Consider `CN(C)CCNc1ncnc2c1sc1nc(-c3ccccc3)c3c(c12)CCCC3`, for which the AC50 was 16.2 µM (active) in experiment [14], 19.4 µM (active) in experiment [15] and 6.93 µM (active) in experiment [9]. In addition, the results for the CC50 in experiment [16] and in experiment [17] were 31.1 µM (active) and 7.38 µM (active), respectively. Also, the IC50 is 13 µM (active) in [5]; > 20 µM (inactive) on Bcl-2-related protein A1; > 50 µM (inactive) on Coagulation factor XII; 7.72 µM (active) in [18]; 10.4 µM (inactive) with HEK293 [12]. Further, the EC50 on Insulin-degrading enzyme [10] is 21.7 µM (inactive); with HEK293 [11], > 54.7 µM (inactive); at Insulin-degrading enzyme [13], > 54.7 µM (inactive).

One may read the EC50 as the concentration at which the effect is half-maximal. By AC50 is commonly meant the midpoint of the concentration-response curve, whichever way the signal moves.
